Test results published in patent US20220372430A1, “PROTISTS ENRICHED WITH LIPIDS RICH IN POLYUNSATURATED FATTY ACIDS” (BIOREA, priority 2015, published 2022).

Legend:
Schizochytrium limacinum = conditions: added exogenously to the culture medium of Schizochytrium, in particular Schizochytrium limacinum; cited from earlier work
[1] = system: Schizochytrium limacinum ATCC-MYA1381; test: Culture of Schizochytrium limacinum in medium with a selenium-containing compound; fatty acid profile of total lipids by GC-FID; assay type: cell-based; conditions: 5 mg of selenium/L in culture medium, incubation 187 h
Protocol: A strain of Schizochytrium limacinum ATCC-MYA1381 was obtained from the ATCC bank (www.atcc.org).
The growth characteristics as well as the production of lipids by Schizochytrium limacinum were measured in the presence of different forms of selenium and compared in the absence of such additives (control referenced “Without Se” in the figures).
Pre-culture of the strain Schizochytrium limacinum ATCC-MYA1381 was carried out in standard liquid medium, the composition of which is given in Table 1. To this end, starter cultures of 50 mL were started in a 250 mL Erlen flask from a colony isolated on 633 M3 chytrid agar (www.atcc.org) and cultured at 25° C.±1° C. in heterotrophy for 48 h in this standard liquid medium. The 100 mL inoculum is then started in a 500 mL Erlen flask from these “starter” cultures at an initial concentration of 1.0×10^6 cells/m/L in the same culture conditions as the latter for 4 days. The cultures were continuously aerated by orbital stirring at 100 rpm (“revolutions per minute”).
The cultures for enrichment with selenium-containing compounds were started from the inoculum at an initial concentration of 1.0×10^6 cells/mL for a final volume of 400 mL in a 2.0 L Erlen flask at 25° C.±1° C. in heterotrophy for 187 h.
The cultures were continuously aerated by orbital stirring at 100 rpm. […]
The total concentration of biomass was monitored by measuring the dry mass (filtration on GFC filter, Whatman, then drying in an oven under vacuum, 70° C. and −0.8 bar (80 kPa), for 24 h minimum before weighing). 10^7 cells/mL were extracted in order to quantify the total lipids. […] In order to ensure complete extraction of the lipids, the tube was kept under stirring on a rocker for 6 hours in darkness, then stored at −20° C. before being analyzed by GC-FID (gas chromatography with flame ionization detection) in order to determine the quantity and the profiles of the total fatty acids extracted. […]

[2] = system: Crypthecodinium cohnii CCMP 316; test: Culture of Crypthecodinium cohnii in medium containing selenomethionine; fatty acid profile and total lipids; assay type: cell-based
Protocol: The total concentration of biomass was monitored by measuring the dry mass (filtration on GFC filter, Whatman, then drying in an oven under vacuum, 70° C. and −0.8 bar (80 kPa), for 24 h minimum before weighing). 10^7 cells/mL were extracted in order to quantify the total lipids. The method for extracting lipids is known to a person skilled in the art and is as described by the publication “Bligh E. G. & Dyer W. J., A rapid method of total lipid extraction and purification, Can. J. Biochem. Physiol 37 1959 911-917”, this method having been slightly adapted for microalga cells. Thus, for each measurement, approximately 10 mL of culture (biomass and medium), freshly sampled, was washed with demineralized water so as to remove the extracellular salts before lyophilization, then placed in a glass tube and centrifuged for 10 mins at 3600 g and at 4° C. After centrifugation, the supernatant was removed and the pellet containing the cells was lyophilized. Extraction was carried out with 6 mL of a monophasic CHCl3/MeOH (chloroform/methanol) mixture in proportions of 2/1 (V/V). In order to ensure complete extraction of the lipids, the tube was kept under stirring on a rocker for 6 hours in darkness, then stored at −20° C. before being analyzed by GC-FID (gas chromatography with flame ionization detection) in order to determine the quantity and the profiles of the total fatty acids extracted.
It was produced in the same way as in Example 1, except that the protist is Crypthecodinium cohnii instead of Schizochytrium limacinum, and that a single source of selenium was used: selenomethionine (“SeMet”).
Crypthecodinium cohnii is a protist, and more precisely a heterotrophic microalga. The strain Crypthecodinium cohnii CCMP 316 was obtained from the NCMA bank (https://ncma.bigelow.org).
The results obtained are shown in FIG. 4 which gives respectively, for Crypthecodinium cohnii after incubation for 187 h, the percentage of compound in the total lipids on the y-axis, for each of the compounds (PUFA, DHA and SFA) shown on the x-axis, in the presence of selenomethionine (reference “With SeMet”), or in the absence of a selenium-containing compound (reference “Without Se”).

Crypthecodinium cohnii = conditions: n-dodecane (oxygen carrier) added to culture medium of Crypthecodinium cohnii; cited from earlier work

C[N+](C)(C)CC(=O)[O-] [glycine betaine]
fermentation yield of polyunsaturated fatty acids (Schizochytrium limacinum): significantly increase

O=[Se](O)O [selenite, sodium selenite]
percentage of DHA in the total lipids ([1]; control without Se 41%): 54% | percentage of SFA in the total lipids ([1]; control without Se 44%): 26% | percentage of PUFA in the total lipids ([1]; control without Se 53%): 73%

C[Se]CC[C@H](N)C(=O)O [selenomethionine]
percentage of DHA in the total lipids ([2]; 5 mg/L of selenium in culture medium, incubation 187 h, control without Se 24%): 34% | percentage of PUFA in the total lipids ([2]; 5 mg/L of selenium in culture medium, incubation 187 h, control without Se 25%): 35% | percentage of SFA in the total lipids ([2]; 5 mg/L of selenium in culture medium, incubation 187 h, control without Se 64%): 53.5% | increase in total lipid content in the dry biomass relative to the control medium ([2]; selenium-containing culture medium versus control medium): 34%

OC[C@H]1O[C@H](O[C@H]2O[C@H](CO)[C@@H](O)[C@H](O)[C@H]2O)[C@H](O)[C@@H](O)[C@@H]1O [trehalose]
fermentation yield of polyunsaturated fatty acids (Schizochytrium limacinum): significantly increase

CCCCCCCCCCCC [n-dodecane]
production of DHA, of total lipids (Crypthecodinium cohnii): 51%
